These are literature values, as cited in PubChem BioAssay AID1259410 (Chemical Carcinogenesis Research Information System (CCRIS), 2018).

The subject of the series is rodent tumor promotion studies, tumor incidence. Kind of series: CCRIS tumor promotion studies.

The structures appear in SMILES notation.

For `CC1=C[C@H]2[C@@]3(O)[C@H](C)[C@@H](O)[C@]4(O)[C@H]([C@@H]3C=C(CO)C[C@]2(O)C1=O)C4(C)C`, the outcome was “liver” (Carcinogen: 2-(ACETYLAMINO)FLUORINE, Doses [Carcinogen]: TRANS-PLACENTAL, Route [Carcinogen]: TRANS-PLACENTAL, Route [Promoter]: INTRAPERITONEAL, Species: MOUSE, Strain/Sex: C57BL/MALE,FEMALE); “mammary glands; hematopoietic system (leukemia, thymic)” (Carcinogen: 7,12-DIMETHYLBENZ(A)ANTHRACENE, Doses [Carcinogen]: IG, Route [Carcinogen]: GAVAGE, Route [Promoter]: INTRAPERITONEAL, Species: RAT, Strain/Sex: FEMALE); “hematopoietic system (leukemia, nonthymic)” (Carcinogen: 7,12-DIMETHYLBENZ(A)ANTHRACENE, Doses [Carcinogen]: TOP, Route [Carcinogen]: DERMAL, Route [Promoter]: INTRAPERITONEAL, Species: MOUSE, Strain/Sex: FEMALE); “lung; liver” (Carcinogen: DIMETHYLNITROSAMINE, Doses [Carcinogen]: SC, Route [Carcinogen]: SUBCUTANEOUS, Route [Promoter]: INTRAPERITONEAL, Species: MOUSE, Strain/Sex: MALE,FEMALE).
For `O=C(O)c1cc(=O)[nH]c(=O)[nH]1`, the outcome runs as follows: (Carcinogen: 1,2-DIMETHYLHYDRAZINE DIHYDROCHLORIDE, 306-37-6, Doses [Carcinogen]: 100 MG/KG ONCE 18 HR AFTER 2/3 PARTIAL HEPATECTOMY, Doses [Promoter]: 0, 1% IN DIET FOR 10 WK BEGINNING 1 WK POST CARCINOGEN DOSE (STUDY DURATION: 54 WK), Route [Carcinogen]: INTRAPERITONEAL, Route [Promoter]: ORAL, Species: RAT, Strain/Sex: F344/MALE) “liver: hepatocellular carcinoma”; (Carcinogen: 1,2-DIMETHYLHYDRAZINE DIHYDROCHLORIDE, 306-37-6, Doses [Carcinogen]: 100 MG/KG ONCE 18 HR AFTER 2/3 PARTIAL HEPATECTOMY, Doses [Promoter]: 0, 1% IN DIET FOR 20 WK BEGINNING 1 WK POST CARCINOGEN DOSE (STUDY DURATION: 54 WK), Route [Carcinogen]: INTRAPERITONEAL, Route [Promoter]: ORAL, Species: RAT, Strain/Sex: F344/MALE) “liver: hepatocellular carcinoma”; (Carcinogen: 1,2-DIMETHYLHYDRAZINE DIHYDROCHLORIDE, 306-37-6, Doses [Carcinogen]: 100 MG/KG ONCE 18 HR AFTER 2/3 PARTIAL HEPATECTOMY, Doses [Promoter]: 0, 1% IN DIET FOR 29 WK BEGINNING 1 WK POST CARCINOGEN DOSE (STUDY DURATION: 54 WK), Route [Carcinogen]: INTRAPERITONEAL, Route [Promoter]: ORAL, Species: RAT, Strain/Sex: F344/MALE) “liver: hepatocellular carcinoma”; (Carcinogen: 1,2-DIMETHYLHYDRAZINE DIHYDROCHLORIDE, 306-37-6, Doses [Carcinogen]: 100 MG/KG ONCE 18 HR AFTER 2/3 PARTIAL HEPATECTOMY, Doses [Promoter]: 0, 1% IN DIET FOR 40 WK BEGINNING 1 WK POST CARCINOGEN DOSE (STUDY DURATION: 54 WK), Route [Carcinogen]: INTRAPERITONEAL, Route [Promoter]: ORAL, Species: RAT, Strain/Sex: F344/MALE) “liver: hepatocellular carcinoma”; (Carcinogen: 1,2-DIMETHYLHYDRAZINE DIHYDROCHLORIDE, Doses [Carcinogen]: 100 MG/KG ONCE, 18 HR AFTER PARTIAL HEPATECTOMY, Doses [Promoter]: 1% IN DIET FOR 10 OR 13 MO BEGINNING 1 WK AFTER INITIATION, Route [Carcinogen]: INTRAPERITONEAL, Route [Promoter]: ORAL, Species: RAT, Strain/Sex: F344/MALE) “liver: hepatocellular carcinoma”; (Carcinogen: 1,2-DIMETHYLHYDRAZINE, 540-73-8, Doses [Carcinogen]: 100 MG/KG ONCE 18 HR AFTER TWO-THIRDS PARTIAL HEPATECTOMY, Doses [Promoter]: 0, 1% IN DIET BEGINNING 1 WK POST CARCINOGEN DOSE (STUDY DURATION: 54 WK), Route [Carcinogen]: INTRAPERITONEAL, Route [Promoter]: ORAL, Species: RAT, Strain/Sex: F344/MALE) “liver: hepatocellular carcinoma”. Besides, the outcome is recorded as “liver: carcinoma” (Carcinogen: DIETHYLNITROSAMINE, 55-18-5, Doses [Carcinogen]: 200 MG/KG BW ONCE, Doses [Promoter]: 0, 1% IN DIET FOR 4 WK BEGINNING 1 WK POST CARCINOGEN DOSE, PARTIAL HEPATECTOMY PERFORMED AT END OF SECOND WK (STUDY DUR, Route [Carcinogen]: INTRAPERITONEAL, Route [Promoter]: ORAL, Species: RAT, Strain/Sex: F344/MALE); “liver: hepatocellular carcinoma” (Carcinogen: DIETHYLNITROSAMINE, 55-18-5, Doses [Carcinogen]: 200 MG/KG ONCE, Doses [Promoter]: 0, 1% IN DIET BEGINNING 1 WK POST CARCINOGEN DOSE (STUDY DURATION: 60 WK), Route [Carcinogen]: INTRAPERITONEAL, Route [Promoter]: ORAL, Species: RAT, Strain/Sex: F344/MALE); “liver: hepatocellular carcinoma” (Carcinogen: DIETHYLNITROSAMINE, 55-18-5, Doses [Carcinogen]: 200 MG/KG ONCE, Doses [Promoter]: 0, 1% IN DIET BEGINNING 5 WK POST CARCINOGEN DOSE (STUDY DURATION: 60 WK), Route [Carcinogen]: INTRAPERITONEAL, Route [Promoter]: ORAL, Species: RAT, Strain/Sex: F344/MALE); “pancreas: papillary adenocarcinoma, carcinoma in situ” (Carcinogen: N-NITROSO(2-HYDROXYPROPYL)(2-OXOPROPYL)AMINE, 61499-28-3, Doses [Carcinogen]: 170 MG/KG (TOTAL DOSE) ADMINISTERED CONTINUOUSLY OVER 9 D VIA OSMOTIC PUMP, Doses [Promoter]: 0, 1% IN DIET BEGINNING 2 WK POST CARCINOGEN TREATMENT AND CONTINUING FOR DURATION OF STUDY (STUDY DURATION: 29 WK), Route [Carcinogen]: SUBCUTANEOUS IMPLANT, Route [Promoter]: ORAL, Species: HAMSTER, Strain/Sex: SYRIAN/FEMALE); “pancreas: carcinoma in situ, adenocarcinoma” (Carcinogen: N-NITROSO(2-HYDROXYPROPYL)(2-OXOPROPYL)AMINE, 61499-28-3, Doses [Carcinogen]: 170 MG/KG (TOTAL DOSE) INFUSED CONTINUOUSLY FOR 9 D, Doses [Promoter]: 0, 1% IN DIET FOR DURATION OF STUDY BEGINNING 2 WK POST CARCINOGEN TREATMENT (STUDY DURATION: 28 WK), Route [Carcinogen]: SUBCUTANEOUS, Route [Promoter]: ORAL, Species: HAMSTER, Strain/Sex: SYRIAN/FEMALE); “kidney: tumor; lung: adenoma” (Carcinogen: N-NITROSO(2-HYDROXYPROPYL)(2-OXOPROPYL)AMINE, 61499-28-3, Doses [Carcinogen]: 400 MG/KG (TOTAL DOSE) ADMINISTERED CONTINUOUSLY BY OSMOTIC PUMP FOR 14 D, Doses [Promoter]: 0, 1% IN DIET FOR 15 WK BEGINNING 2 WK PRIOR TO CARCINOGEN TREATMENT (STUDY DURATION: 29 WK), Route [Carcinogen]: SUBCUTANEOUS, Route [Promoter]: ORAL, Species: RAT, Strain/Sex: SPRAGUE-DAWLEY/MALE). For the same molecule, the outcome (Carcinogen: N-NITROSO(2-HYDROXYPROPYL)(2-OXOPROPYL)AMINE, 61499-28-3, Doses [Carcinogen]: 400 MG/KG VIA OSMOTIC PUMP CONTINUOUSLY FOR 14 D, Doses [Promoter]: 0, 1% IN DIET 2 WK PRIOR TO AND 13 WK POST CARCINOGEN TREATMENT (STUDY DURATION: 27 WK), Route [Carcinogen]: SUBCUTANEOUS, Route [Promoter]: ORAL, Species: RAT, Strain/Sex: CD-1/MALE) is on record as “kidney: tumor; lung: adenoma”.
As to `CC(=O)OCC(CO)OC(C)=O` (stereo unspecified), the outcome was “tongue: squamous cell papillomas and carcinomas; oral cavity: squamous cell papi” (Carcinogen: 4-Nitroquinoline 1-oxide, 56-57-5, Doses [Carcinogen]: 10 ppm in drinking water from wks 0-10, study duration 35 wk, Doses [Promoter]: 0, 2.75%, 5.5%, 11% in diet from wks 11-35, study duration 35 wks, Doses [Promoter]: 0, 2.75%, 5.5%, 11% in diet from wks 11-35, study duration 35 wks, Route [Carcinogen]: Oral, Route [Promoter]: Oral, Species: Rat, Strain/Sex: Sprague-Dawley/Male (30/Group)); “skin: papillomas” (Carcinogen: 7,12-Dimethylbenz(a)anthracene, 57-97-6, Doses [Carcinogen]: 100 ug in 100 ul acetone once at 6 wk of age, Doses [Promoter]: 0, 12, 30, 75 mg, 5 d/wk beginning 1 wk after carcinogen administration for 35 wk, study duration 36 wk, Route [Carcinogen]: Dermal, Route [Promoter]: Dermal, Species: Mouse, Strain/Sex: ICR/Female); “skin: papillomas and squamous cell carcinomas” (Carcinogen: 7,12-Dimethylbenz(a)anthracene, 57-97-6, Doses [Carcinogen]: 100 ug in 100 ul acetone once at 6 wk of age, Doses [Promoter]: 0, 30, 75 mg, twice daily, 5 d/wk beginning 1 wk after carcinogen administration for 35 wk, study duration 36 wk, Route [Carcinogen]: Dermal, Route [Promoter]: Dermal, Species: Mouse, Strain/Sex: ICR/Female).
`CCCCCCCC/C=C\CCCCCCCC(=O)O`: the outcome (Carcinogen: 7,12-DIMETHYLBENZ(A)ANTHRACENE, Doses [Carcinogen]: TOP, Route [Carcinogen]: DERMAL, Route [Promoter]: DERMAL, Species: MOUSE, Strain/Sex: MALE,FEMALE) is “integumentary system (skin)”.
